Drawing on patent publication US20220046923A1, “HERBICIDAL CINNOLINIUM COMPOUNDS” (SYNGENTA CROP PROTECTION AG, priority 2018, published 2022), this text covers pest or weed control for twelve molecules.

Each structure is given as a SMILES string.

Holding throughout (test): Post-emergence efficacy, glasshouse spray test
Holding throughout (format): in vivo

For assay [1], the system named is Amaranthus palmeri (AMAPA). Conditions: Amaranthus palmeri, post-emergence, 312 h, evaluated after 13 days, read-out: Control of weed species AMAPA after post-emergence application (100=total damage to plant; 0=no damage to plant); for pest or weed control at 500 g/ha: application rate 500 g/Ha; for pest or weed control at 1000 g/ha: application rate 1000 g/Ha. The procedure, abridged:
(§1)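 Plants grown 14 days in glasshouse (24/16 °C day/night, 14 h light, 65% humidity), then sprayed post-emergence with formula (I) formulated in IF50 and diluted in 0.25% or 1% Empicol ESC70 + 1% ammonium sulphate. Damage scored visually 13 days after spraying (0 = none, 100 = total).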

Assay [2] relates to Chenopodium album (CHEAL). The following applies: Chenopodium album, post-emergence, 312 h, evaluated after 13 days, read-out: Control of weed species CHEAL after post-emergence application (100=total damage to plant; 0=no damage to plant); for pest or weed control at 500 g/ha: application rate 500 g/Ha; for pest or weed control at 1000 g/ha: application rate 1000 g/Ha. A digest of the protocol: as §1

Assay [3] concerns Digitaria sanguinalis (DIGSA). The following applies: Digitaria sanguinalis, post-emergence, 312 h, evaluated after 13 days, read-out: Control of weed species DIGSA after post-emergence application (100=total damage to plant; 0=no damage to plant); for pest or weed control at 500 g/ha: application rate 500 g/Ha; for pest or weed control at 1000 g/ha: application rate 1000 g/Ha. A digest of the protocol:
as §1

Assay [4] deals with Echinochloa crus-galli (ECHCG). Conditions: Echinochloa crus-galli, post-emergence, 312 h, evaluated after 13 days, read-out: Control of weed species ECHCG after post-emergence application (100=total damage to plant; 0=no damage to plant); for pest or weed control at 500 g/ha: application rate 500 g/Ha; for pest or weed control at 1000 g/ha: application rate 1000 g/Ha. A digest of the protocol: as §1

The test system of another assay is Eleusine indica (ELEIN). The following applies: Eleusine indica, post-emergence, 312 h, evaluated after 13 days, read-out: Control of weed species ELEIN after post-emergence application (100=total damage to plant; 0=no damage to plant); for pest or weed control at 500 g/ha: application rate 500 g/Ha; for pest or weed control at 1000 g/ha: application rate 1000 g/Ha. A digest of the protocol: as §1

Assay [5] concerns Euphorbia heterophylla (EPHHL). Conditions: Euphorbia heterophylla, post-emergence, 312 h, evaluated after 13 days, read-out: Control of weed species EPHHL after post-emergence application (100=total damage to plant; 0=no damage to plant); for pest or weed control at 500 g/ha: application rate 500 g/Ha; for pest or weed control at 1000 g/ha: application rate 1000 g/Ha. The procedure, abridged: as §1

Assay [6] deals with Ipomoea hederacea (IPOHE). The following applies: Ipomoea hederacea, post-emergence, 312 h, evaluated after 13 days, read-out: Control of weed species IPOHE after post-emergence application (100=total damage to plant; 0=no damage to plant); for pest or weed control at 500 g/ha: application rate 500 g/Ha; for pest or weed control at 1000 g/ha: application rate 1000 g/Ha. A digest of the protocol:
as §1

A further assay deals with Lolium perenne (LOLPE). The following applies: Lolium perenne, post-emergence, 312 h, evaluated after 13 days, read-out: Control of weed species LOLPE after post-emergence application (100=total damage to plant; 0=no damage to plant); for pest or weed control at 500 g/ha: application rate 500 g/Ha; for pest or weed control at 1000 g/ha: application rate 1000 g/Ha. A digest of the protocol: as §1

A further assay concerns Setaria faberi (SETFA). Conditions: Setaria faberi, post-emergence, 312 h, evaluated after 13 days, read-out: Control of weed species SETFA after post-emergence application (100=total damage to plant; 0=no damage to plant); for pest or weed control at 500 g/ha: application rate 500 g/Ha; for pest or weed control at 1000 g/ha: application rate 1000 g/Ha. A digest of the protocol:
as §1

Regarding `COC(=O)c1ccc2cc[n+](CCS(=O)(=O)[O-])nc2c1` [Compound A108], the pest or weed control at 500 g/ha turned out to be 20% in assay [1]; 40% in assay [2]; 70% in assay [3]; 20% in assay [4]; 30% with Eleusine indica (ELEIN); 50% in [5]. Moreover, the pest or weed control at 500 g/ha (in assay [6]; with Lolium perenne (LOLPE); in the assay on Setaria faberi (SETFA)) was 10% in each case.

Consider `COC(=O)c1cccc2cc[n+](CCS(=O)(=O)[O-])nc12` [Compound A109, 2-(8-methoxycarbonylcinnolin-2-ium-2-yl)ethanesulfonate], for which the pest or weed control at 500 g/ha in [1] is 40%; in assay [2], 20%; in [3] it was 10%; in [4] it was 30%; in the assay on Eleusine indica (ELEIN), 10%; in assay [5] it was 30%. Further, the pest or weed control at 500 g/ha (in [6]; in the assay with Lolium perenne (LOLPE); in the assay on Setaria faberi (SETFA)) was 10% each time.

Turning to `N#Cc1cccc2cc[n+](CCS(=O)(=O)[O-])nc12` [Compound A110, 2-(8-cyanocinnolin-2-ium-2-yl)ethanesulfonate], the pest or weed control at 500 g/ha in [1] was 70%; in assay [2], 30%; in [3] it was 20%; in assay [4], 20%; in the assay on Eleusine indica (ELEIN), 20%; in assay [5], 60%. For the same molecule, the results for the pest or weed control at 500 g/ha (in [6]; in the assay on Lolium perenne (LOLPE); in the assay on Setaria faberi (SETFA)) were 40%, 0% and 20%, respectively.

In the case of `O=S(=O)([O-])OCC[n+]1nc2ccccc2cc1Cl` [Compound A111], the pest or weed control at 1000 g/ha is 0% in assay [1]; 0% in [2]; 10% in assay [3]; 0% in assay [4]; 20% in the assay with Eleusine indica (ELEIN); 30% in assay [5]. For the same molecule, the pest or weed control at 1000 g/ha (in assay [6]; in the assay with Lolium perenne (LOLPE); in the assay on Setaria faberi (SETFA)) was 0% throughout.

As to `O=S(=O)(O)CC[n+]1ccc2cc(-c3ccccc3)ccc2n1` [Compound A112], the pest or weed control at 1000 g/ha in assay [1] turned out to be 10%; in [2], 30%; in assay [3] it was 30%; in [4], 10%; in the assay with Eleusine indica (ELEIN), 30%; in assay [5], 20%. Further, the pest or weed control at 1000 g/ha in assay [6] is 10%; with Lolium perenne (LOLPE), 10%; in the assay with Setaria faberi (SETFA), 20%.

`CC(C)(C[n+]1ccc2ccccc2n1)C(=O)O` [Compound A113, 3-cinnolin-2-ium-2-yl-2,2-dimethyl-propanoic Acid 2,2,2-trifluoroacetate]: the pest or weed control at 500 g/ha amounted to 10% in [1]; 10% in assay [2]; 30% in [3]; 40% in assay [4]; 30% with Eleusine indica (ELEIN); 10% in assay [5]. Moreover, the figures for the pest or weed control at 500 g/ha (in assay [6]; with Lolium perenne (LOLPE); in the assay with Setaria faberi (SETFA)) were 10%, 20% and 20%, respectively.

`O=C(NC(C[n+]1ccc2ccccc2n1)C(=O)O)OCc1ccccc1` (stereo not drawn) [Compound A114]: the pest or weed control at 500 g/ha in assay [1] was 50%; in assay [2] it was 40%; in [3], 20%; in assay [4], 20%; with Eleusine indica (ELEIN) it was 30%; in [5] it was 50%. Also, the pest or weed control at 500 g/ha in assay [6] worked out at 30%; in the assay on Lolium perenne (LOLPE), 10%; with Setaria faberi (SETFA), 20%.

Take `CC(CC(=O)O)[n+]1ccc2ccccc2n1` (stereo not drawn) [Compound A115, 3-cinnolin-2-ium-2-ylbutanoic Acid 2,2,2-trifluoroacetate]: the pest or weed control at 500 g/ha is 100% in assay [1]; 40% in assay [2]; 60% in assay [3]; 20% in assay [4]; 60% in the assay with Eleusine indica (ELEIN); 20% in [5]. For the same molecule, the pest or weed control at 500 g/ha in assay [6] was 20%; in the assay with Lolium perenne (LOLPE) it was 20%; in the assay with Setaria faberi (SETFA), 30%.

Turning to `CC(C(=O)OC(C)(C)C)[n+]1ccc2ccccc2n1` (stereo not drawn) [Compound A116], the pest or weed control at 500 g/ha in assay [1] came out at 60%; in [2], 50%; in [3], 40%; in assay [4], 30%; in the assay on Eleusine indica (ELEIN) it was 30%; in assay [5], 30%. Also, the pest or weed control at 500 g/ha in [6] came to 10%; with Lolium perenne (LOLPE), 20%; in the assay on Setaria faberi (SETFA) it was 30%.

As for `Cc1cc(C)c2n[n+](CCO)cc(C)c2c1` [Compound A117], the pest or weed control at 1000 g/ha in [1] is 30%; in assay [2], 20%; in assay [3], 20%; in assay [4] it was 20%; in the assay on Eleusine indica (ELEIN) it was 60%; in assay [5], 20%. The pest or weed control at 1000 g/ha in [6] came to 20%; in the assay on Lolium perenne (LOLPE) it was 10%; with Setaria faberi (SETFA) it was 30%.

In the case of `Cc1c[n+](CCO)nc2ccccc12` [Compound A118], the pest or weed control at 1000 g/ha in assay [1] was found to be 10%; in [2], 10%; in assay [3], 20%; in assay [4] it was 10%; in the assay with Eleusine indica (ELEIN), 20%; in [5], 20%. The pest or weed control at 1000 g/ha (in [6]; in the assay on Lolium perenne (LOLPE); with Setaria faberi (SETFA)) was 10% each time.

Regarding `OCC[n+]1ccc2ccccc2n1` [Compound A119], the pest or weed control at 1000 g/ha turned out to be 90% in assay [1]; 90% in assay [2]; 50% in assay [3]; 20% in [4]; 40% in the assay on Eleusine indica (ELEIN); 80% in [5]. Besides, the figures for the pest or weed control at 1000 g/ha (in assay [6]; in the assay with Lolium perenne (LOLPE); with Setaria faberi (SETFA)) were 50%, 20% and 50%, respectively.
